The numbers were not newly measured in PMC6974622, “DeepMalaria: Artificial Intelligence Driven Discovery of Potent Antiplasmodials” (Frontiers in Pharmacology, 2020), which cites them from elsewhere.

Where a name gives a salt, the structure may show the parent alone.

In one data set the test system is 3D7. Set-up: unit not given here. As to conditions: cited from earlier work.
Take `CN1CCN(CCCN2c3ccccc3Sc3ccc(Cl)cc32)CC1` [Prochlorperazine edisylate]: the 3D7 is reported as 73.3.

Take `CNCCCC12CCC(c3ccccc31)c1ccccc12` [Maprotiline]: the 3D7 is 62.7.

With `OCc1cc(C(O)CNCCCCCCOCCCCc2ccccc2)ccc1O` (stereo not shown) [Salmeterol xinafoate], the 3D7 is 72.5.

Turning to `COc1cc2ncnc(Nc3ccc(F)c(Cl)c3)c2cc1OCCCN1CCOCC1` [Geftinib], the 3D7 is 67.6.

For the compound Tolonium chloride, the 3D7 was 99.5.

The same data set, now with this note: repurposing dataset, 179 approved drugs; ref https://www.nature.com/articles/nchembio806; cited from earlier work.
As to `CC(C)c1nc(CN(C)C(=O)N[C@H](C(=O)N[C@@H](Cc2ccccc2)C[C@H](O)[C@H](Cc2ccccc2)NC(=O)OCc2cncs2)C(C)C)cs1` [Ritonavir], the 3D7 is listed as 84.9.

On to `OCCN1CCN(CCCN2c3ccccc3Sc3ccc(Cl)cc32)CC1` [Perphenazine], for which the 3D7 is 85.6.

For `CCCCCCc1ccc(O)cc1O.Nc1c2ccccc2nc2ccccc12` [Acrisorcin], the 3D7 is recorded as 98.4.

As to `O=c1[nH]c2ccccc2n1CCCN1CCC(n2c(=O)[nH]c3cc(Cl)ccc32)CC1` [Domperidone], the 3D7 was 82.2.

In the case of Plicamycin, the 3D7 is 98.2.

Turning to `C[N+](C)(C)CCCCCCCCCC[N+](C)(C)C` [Decamethonium bromide], the 3D7 is 54.8.

With `COc1ccc(CCN2CCC(Nc3nc4ccccc4n3Cc3ccc(F)cc3)CC2)cc1` [Astemizole], the 3D7 is 97.6.

For the compound `COc1cc2nc(N3CCN(C(=O)C4COc5ccccc5O4)CC3)nc(N)c2cc1OC` (stereo not shown) [Doxazosin mesylate], the 3D7 is 96.4.

Take `CN1C[C@H](CNC(=O)OCc2ccccc2)C[C@@H]2c3cccc4c3c(cn4C)C[C@H]21` [Metergoline]: the 3D7 is 85.9.

Regarding `O=[N+]([O-])c1ccc(O)c2ncccc12` [Nitroxoline], the 3D7 is 97.2.

`O=c1oc2c(O)c(O)cc3c(=O)oc4c(O)c(O)cc1c4c23` [Ellagic acid]: the 3D7 is on record as 87.1.

Take `C=C[C@H]1C[N@@]2CC[C@H]1C[C@H]2[C@H](O)c1ccnc2ccc(OC)cc12` [Quinine]: the 3D7 was 98.3.

In the case of `CC[n+]1c(-c2ccccc2)c2cc(N)ccc2c2ccc(N)cc21` [Homidium bromide], the 3D7 is given as 98.9.

Consider `Oc1ccc(Cl)c2cccnc12` [Cloxyquin], for which the 3D7 is given as 83.6.

For `CN(C)CCOC(c1ccccc1)c1ccc(Br)cc1` (stereo not shown) [Bromodiphenhydramine], the 3D7 is 64.2.

As to `C[C@@H]1C[C@@H]([C@H](O)CC2CC(=O)NC(=O)C2)C(=O)[C@@H](C)C1` [Cycloheximide], the 3D7 is 97.7.

As to `CC(=O)OC[C@H]1O[C@@H]([S-])[C@H](OC(C)=O)[C@@H](OC(C)=O)[C@@H]1OC(C)=O.CCP(CC)CC.[Au+]` [Auranofin], the 3D7 was 99.4.

Regarding `Cc1cccc(C)c1OCC(=O)N[C@@H](Cc1ccccc1)[C@@H](O)C[C@H](Cc1ccccc1)NC(=O)[C@H](C(C)C)N1CCCNC1=O` [Lopinavir], the 3D7 is recorded as 84.9.

In the case of `CCC(C)C(C(=O)OCC[N+](C)(CC)CC)c1ccccc1` (stereo not shown) [Valethamate], the 3D7 is 79.9.

With `CC(=O)O[C@H]1C(=O)[C@@]2(C)[C@H]([C@H](OC(=O)c3ccccc3)[C@]3(O)C[C@H](OC(=O)[C@H](O)[C@@H](NC(=O)c4ccccc4)c4ccccc4)C(C)=C1C3(C)C)[C@]1(OC(C)=O)CO[C@@H]1C[C@@H]2O` [Paclitaxel], the 3D7 is 84.5.

Regarding `COCC(=O)O[C@]1(CCN(C)CCCc2nc3ccccc3[nH]2)CCc2cc(F)ccc2[C@@H]1C(C)C` [Mibefradil], the 3D7 was 92.

In the case of `Nc1nc2nc[nH]c2c(=S)[nH]1` [Thioguanine], the 3D7 is given as 68.7.

Take `CN1CCC[C@@H]1CCO[C@](C)(c1ccccc1)c1ccc(Cl)cc1` [Clemastine]: the 3D7 is on record as 96.5.

As to `C=C[C@H]1CN2CC[C@H]1C[C@@H]2[C@@H](O)c1ccnc2ccccc12.C=C[C@H]1CN2CC[C@H]1C[C@@H]2[C@@H](O)c1ccnc2ccccc12.O=S(=O)(O)O` [Cinchonine sulfate], the 3D7 is listed as 88.6.

With `Nc1ccc2cc3ccc(N)cc3nc2c1` [Proflavine], the 3D7 is listed as 96.2.

With `CN(C)CCOC(C)(c1ccccc1)c1ccc(Cl)cc1` (stereo not shown) [Chlorphenoxamine], the 3D7 is recorded as 90.8.

As to `CCCCC(CC)CN1CN(CC(CC)CCCC)CC(C)(N)C1` (stereo not shown) [Hexetidine], the 3D7 is listed as 86.2.

As to `CCCCOc1ccc(CC(=O)NO)cc1` [Bufexamac], the 3D7 is on record as 93.2.

Regarding `Nc1nc(N)c2nc(CNc3ccc(C(=O)N[C@@H](CCC(=O)O)C(=O)O)cc3)cnc2n1` [Aminopterin], the 3D7 is 95.7.

Regarding `COc1ccc(C[C@H]2NC[C@H](O)[C@H]2OC(C)=O)cc1` [Anisomycin], the 3D7 is recorded as 97.

For Doxycycline, the 3D7 was 59.7.

As for `COc1cccc2c1C(=O)c1c(O)c3c(c(O)c1C2=O)C[C@@](O)(C(=O)CO)C[C@@H]3O[C@H]1C[C@H](N)[C@@H](O)[C@H](C)O1` [Epirubicin], the 3D7 is given as 98.4.

For `CC(C)(C)CC(C)(C)c1ccc(OCCOCC[N+](C)(C)Cc2ccccc2)cc1` [Benzethonium chloride], the 3D7 is 98.6.

On to `C=Cc1c(C)c2cc3nc(cc4[nH]c(cc5nc(cc1[nH]2)C(C)=C5CCC(=O)O)c(CCC(=O)OC)c4C)[C@@]1(C)C3=CC=C(C(=O)OC)[C@H]1C(=O)OC` [Verteporfin], for which the 3D7 is recorded as 95.4.

For the compound `CC(=O)[C@]1(O)Cc2c(O)c3c(c(O)c2[C@@H](O[C@H]2C[C@H](N)[C@H](O)[C@H](C)O2)C1)C(=O)c1ccccc1C3=O` [Idarubicin], the 3D7 is given as 98.9.

Regarding `Nc1nc(N)c2nc(-c3ccccc3)c(N)nc2n1` [Triamterene], the 3D7 is listed as 79.4.

With `COC(=O)[C@@H]1c2cc3c(c(O)c2[C@@H](O[C@@H]2O[C@@H](C)[C@H](OC)[C@@](C)(OC)[C@H]2OC)C[C@]1(C)O)C(=O)c1c(O)cc2c(c1C3=O)O[C@@H]1O[C@@]2(C)[C@H](O)[C@@H](N(C)C)[C@@H]1O` [Nogalamycin], the 3D7 is 85.3.

`CC(C(O)c1ccc(O)cc1)N1CCC(Cc2ccccc2)CC1` (stereo not shown) [Ifenprodil]: the 3D7 is on record as 82.3.

For `NC1CCN(c2c(F)cc3c(=O)c(C(=O)O)cn(C4CC4)c3c2Cl)C1` (stereo not shown) [Clinafloxacin], the 3D7 is recorded as 79.3.

Take `CCOC(=O)C1=C(COCCN)NC(C)=C(C(=O)OC)C1c1ccccc1Cl` (stereo not shown) [Amlodipine besylate]: the 3D7 is on record as 68.2.

As for `O.O=C(O)c1cc(O)c2c(c1)[O][Bi][O]2` [Bismuth gallate], the 3D7 is given as 56.5.

As for `CCC(=O)O[C@]1(C(=O)CCl)[C@@H](C)C[C@H]2[C@@H]3CCC4=CC(=O)C=C[C@]4(C)[C@@]3(F)[C@@H](O)C[C@@]21C` [Clobetasol propionate], the 3D7 is reported as 86.

In the case of `CCCCCCCCCCCCCCCC[N+](C)(C)Cc1ccccc1` [Cetalkonium chloride], the 3D7 is recorded as 74.2.

On to `C=C[C@H]1CN2CC[C@H]1C[C@H]2[C@H](OC(=O)OCC)c1ccnc2ccc(OC)cc12` [Quinine ethyl carbonate], for which the 3D7 is recorded as 94.5.

In the case of `C[N+]1(C)CCC(=C(c2ccccc2)c2ccccc2)CC1` [Diphemanil], the 3D7 is 90.

As for `CCCCCCCCNC(C)C(O)c1ccc(SC(C)C)cc1` (stereo not shown) [Suloctidil], the 3D7 is reported as 97.3.

For the compound `CCOc1ccc2nc3cc(N)ccc3c(N)c2c1` [Ethacridine lactate], the 3D7 was 96.2.

With `CN1CCc2c(c3ccccc3n2Cc2ccccc2)C1` [Mebhydrolin], the 3D7 was 57.1.

Consider `N=C(N)N/N=C/c1c(Cl)cccc1Cl` [Guanabenz acetate], for which the 3D7 is 92.7.

As to `O=S(=O)([O-])[O-].[Cu+2]` [Copper sulfate], the 3D7 is on record as 80.4.

With `N=C1C=CC(=C(c2ccc(N)cc2)c2ccc(N)cc2)C=C1` [Pararosaniline pamoate], the 3D7 was 97.3.

On to `Cc1cc(C2CCCCC2)n(O)c(=O)c1` [Ciclopirox olamine], for which the 3D7 is listed as 96.9.

For `CCC1=C[C@@H]2CN(C1)Cc1c([nH]c3ccccc13)[C@@](C(=O)OC)(c1cc3c(cc1OC)N(C)[C@H]1[C@@](O)(C(=O)OC)[C@H](OC(C)=O)[C@]4(CC)C=CCN5CC[C@]31[C@@H]54)C2` [Vinorelbine], the 3D7 is on record as 97.7.

Take `CC(=O)O[C@H]1C[C@@H]2CC[C@@H]3[C@H](CC[C@@]4(C)[C@H]3C[C@H]([N+]3(C)CCCCC3)[C@@H]4OC(C)=O)[C@@]2(C)C[C@@H]1[N+]1(C)CCCCC1` [Pancuronium bromide]: the 3D7 is 52.6.

In the case of `CCN1/C(=C/C=C/C=C/c2sc3ccccc3[n+]2CC)Sc2ccccc21` [Dithiazanine iodide], the 3D7 is 98.

For the compound Brilliant green, the 3D7 is given as 93.5.

With `CN(Cc1cnc2nc(N)nc(N)c2n1)c1ccc(C(=O)N[C@@H](CCC(=O)O)C(=O)O)cc1` [Methotrexate], the 3D7 was 98.4.

On to `Cc1cc(C(C)(C)CC(C)(C)C)ccc1OCCOCC[N+](C)(C)Cc1ccccc1.[Cl-]` [Methylbenzethonium chloride], for which the 3D7 is 97.7.

As to `CN(C)c1ccc(C(=C2C=CC(=[N+](C)C)C=C2)c2ccc(N(C)C)cc2)cc1` [Gentian violet], the 3D7 is listed as 98.7.

For Corticotropin A, the 3D7 is on record as 86.4.

Atovaquone: the 3D7 is given as 97.

On to `Fc1ccc([C@@H]2CCNC[C@H]2COc2ccc3c(c2)OCO3)cc1` [Paroxetine], for which the 3D7 is given as 85.4.

Turning to `CCN(CCO)CCCC(C)Nc1ccnc2cc(Cl)ccc12` (stereo not shown) [Hydroxychloroquine], the 3D7 is listed as 97.7.

Carboplatin: the 3D7 is on record as 76.4.

As to `CCCCCCCCCCCCCCCCCC[N+](C)(C)C.[Cl-]` [Stearyltrimethylammonium chloride], the 3D7 is 78.6.

On to `N=C(N)NC(=O)c1nc(Cl)c(N)nc1N` [Amiloride], for which the 3D7 was 73.2.

As for `CCN(CC)CCCC(C)Nc1ccnc2cc(Cl)ccc12` (stereo not shown) [Chloroquine diphosphate], the 3D7 is recorded as 97.3.

`Nc1ccn([C@@H]2O[C@H](CO)[C@@H](O)C2(F)F)c(=O)n1` [Gemcitabine]: the 3D7 was 75.3.
